Measurements published in patent publication US9062026B2, “Fused pyrimidines and substituted quinazolines as inhibitors of p97” (Cleave Biosciences, Inc., priority 2012, dated 2015).
Where two headings read alike, the source gives them in different places.

Target: p97 (Homo sapiens (Human), UniProt P55072)
Assay: P97 ATPase biochem assay (ADP Glo)
Format: biochemical
Experimental: The ATPase assay is performed according the following protocol: Purified enzyme (20 nM p97), substrate (20 μM ATP) and a dose titration of compounds are mixed in buffer (50 mM TRIS pH 7.5, 20 mM MgCl2, 0.02% TX-100, 1 mM DTT, 0.2% (v/v) glycerol) and incubated at 37° C. for 15 minutes. The reaction is terminated and the level of product generated is measured using the ADP Glo Assay Kit (Promega, Madison Wis.). Plotting product generated versus compound concentration and using a four-parameter fit model generates an IC50 value for each compounds.

[1] = 20 nM p97, 20 μM ATP, 37° C., 15 minutes, read-out: p97 biochem IC50

Chain of p97 (P55072 whole entry): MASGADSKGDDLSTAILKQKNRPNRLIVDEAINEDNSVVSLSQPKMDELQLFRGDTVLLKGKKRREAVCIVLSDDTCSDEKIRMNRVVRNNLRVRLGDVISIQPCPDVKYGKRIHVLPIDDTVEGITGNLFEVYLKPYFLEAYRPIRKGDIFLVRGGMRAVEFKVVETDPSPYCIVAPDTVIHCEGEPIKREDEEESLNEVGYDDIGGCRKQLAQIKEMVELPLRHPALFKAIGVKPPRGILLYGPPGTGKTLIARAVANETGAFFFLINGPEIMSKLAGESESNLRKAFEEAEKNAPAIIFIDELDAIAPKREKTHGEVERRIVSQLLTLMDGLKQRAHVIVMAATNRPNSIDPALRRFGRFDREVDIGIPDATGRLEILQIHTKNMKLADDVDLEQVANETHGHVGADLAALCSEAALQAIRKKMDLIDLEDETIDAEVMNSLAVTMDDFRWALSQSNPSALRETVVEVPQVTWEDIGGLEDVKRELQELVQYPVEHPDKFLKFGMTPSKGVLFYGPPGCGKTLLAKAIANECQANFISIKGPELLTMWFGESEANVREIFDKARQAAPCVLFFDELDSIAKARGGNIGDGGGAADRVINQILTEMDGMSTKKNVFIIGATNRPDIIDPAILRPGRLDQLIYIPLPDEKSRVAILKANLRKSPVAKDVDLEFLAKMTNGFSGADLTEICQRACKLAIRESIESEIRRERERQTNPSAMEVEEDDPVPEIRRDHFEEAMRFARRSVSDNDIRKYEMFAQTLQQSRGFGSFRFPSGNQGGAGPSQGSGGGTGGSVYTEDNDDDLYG

Compound | IC50 [1] [µM] | IC50 (read-out: p97 IC50) [µM]
COC1=Nc2ccccc2C1c1nc(NCc2ccc(F)cc2)c2cccc(OC)c2n1 (stereo not shown) | < 2 | 
COc1cccc2c(NCc3ccccc3)nc(-n3c(CN)nc4sccc43)nc12 | < 2 | 
COCCOc1cccc2c(NCc3ccccc3)nc(-n3c(C(C)N)cc4ccccc43)nc12 (stereo not shown) [2-[2-(1-aminoethyl)-1H-indol-1-yl]-N-benzyl-8-(2-methoxyethoxy)quinazolin-4-amine] |  | < 0.3
COc1cccc2c(NCc3ccccc3)nc(-n3c(C)nc4ccccc43)nc12 | < 2 | 
COc1cccc2c(NCc3ccco3)nc(-n3c(N)nc4ccccc43)nc12 | < 5 | 
COc1cccc2c(NCc3ccccc3)nc(-n3c(/C=C/S(C)(=O)=O)cc4ccccc43)nc12 [drawing 244] | < 2 | 
COCCOc1cccc2c(NCc3ccccc3)nc(-n3c(OC)cc4ccccc43)nc12 [N-benzyl-2-(2-methoxy-1H-indol-1-yl)-8-(2-methoxyethoxy)quinazolin-4-amine] |  | < 0.1
COc1cccc2c(NCc3ccccc3)nc(-n3c(C)cc4ccccc43)nc12 | < 2 | 
COCCOc1cccc2c(NCc3ccccc3)nc(C3C(ON)=Nc4ccccc43)nc12 (stereo not shown) | < 2 | 
COc1nc2ccccc2n1-c1nc(NCc2ccccc2)c2ncsc2n1 | < 2 | 
Nc1nc2ccccc2n1-c1nc(NCc2ccccc2)c2nc[nH]c2n1 | < 5 | 
COc1cccc2c(NCc3ccccc3)nc(CCc3ccccc3)nc12 | < 25 | 
COc1cccc2c(NCc3ccccc3)nc(-n3c(OC)nc4ccccc43)nc12 | < 2 | 
Cc1cc2c(Cl)cccc2n1-c1nc2c(c(NCc3ccccc3)n1)CNCC2 [N-benzyl-2-(4-chloro-2-methyl-1H-indol-1-yl)-5H,6H,7H,8H-pyrido[4,3-d]pyrimidin-4-amine] |  | < 0.3
COc1cccc2c(NCc3ccoc3)nc(-n3c(N)nc4ccccc43)nc12 | < 5 | 
COc1cccc2c(NCc3ccccc3)nc(N3CCOc4ccccc43)nc12 | < 5 | 
COc1cccc2c(NCc3ccccc3)nc(-n3c(OC)cc4ccccc43)nc12 [drawing 204] | < 2 | 
COc1cccc2c(NCc3ccccc3)nc(-n3c(/C=C\C#N)cc4ccccc43)nc12 [(2Z)-3-{1-[4-(benzylamino)-8-methoxyquinazolin-2-yl]-1H-indol-2-yl}prop-2-enenitrile] |  | < 0.3

Now from value to compound:

IC50 [1] [µM] | IC50 (read-out: p97 IC50) [µM] | Compound
< 2 |  | CN(C)Cc1cc2ccccc2n1-c1nc2c(c(NCc3ccccc3)n1)CCCC2 [drawing 229]
< 10 |  | CNCC(=O)N1CCc2c(nc(-n3c(CN)cc4ccccc43)nc2NCc2ccccc2)C1
< 2 |  | CC(=O)N1CCc2nc(-n3c(C)cc4ccccc43)nc(NCc3ccccc3)c2C1
< 2 |  | COc1cccc2c(NCc3ccccc3)nc(-n3c(CN)cc4ccccc43)nc12
< 2 |  | Cc1cc2ccccc2n1-c1nc(NCc2ccccc2)c2cccc(C#N)c2n1
 | < 0.3 | Clc1cc2ccccc2n1-c1nc2c(c(NCc3ccccc3)n1)CNCC2 [N-benzyl-2-(2-chloro-1H-indol-1-yl)-5H,6H,7H,8H-pyrido[4,3-d]pyrimidin-4-amine]
 | < 0.3 | COc1cccc2c(NCc3ccccc3)nc(-n3c(CNC(C)=O)cc4ccccc43)nc12 [N-({1-[4-(benzylamino)-8-methoxyquinazolin-2-yl]-1H-indol-2-yl}methyl)acetamide]
 | < 0.3 | COCCOc1cccc2c(NCc3ccccc3)nc(-n3c(CNC(=O)OC)cc4ccccc43)nc12 [methyl N-({1-[4-(benzylamino)-8-(2-methoxyethoxy)quinazolin-2-yl]-1H-indol-2-yl}methyl)carbamate]
< 2 |  | COC(=O)NCc1cc2ccccc2n1-c1nc2c(c(NCc3ccccc3)n1)CCCC2 [drawing 232]
< 2 |  | COc1cc2ccccc2n1-c1nc2c(c(NCc3ccccc3)n1)CCCC2 [drawing 226]
< 2 |  | Cc1cc2ccccc2n1-c1nc2c(c(NCc3ccccc3)n1)CNCC2
< 2 |  | CS(=O)(=O)NCc1cc2ccccc2n1-c1nc2c(c(NCc3ccccc3)n1)CCCC2 [drawing 233]
< 2 |  | Cc1cc2ccccc2n1-c1nc(NCc2ccccc2)c2cccc(CN)c2n1
